One compound from patent US20150072418A1, “HCV GENOTYPE 4D REPLICONS” (priority 2013, published 2015) can be followed below.

As a reminder, the EC50 is the concentration at which the effect is half-maximal.

Assay [1] has as its system GT4a replicon. In words: HCV replicon susceptibility to antiviral agents, GT4a. In kind it is cell-based. The following applies: Hepatitis C virus, n = 2. The protocol:
(§1) All of these HCV inhibitors, as well as any other candidate agents, can be tested with the disclosed methods for their efficacy in inhibiting HCV genotype 4d. The cells are then incubated at a suitable temperature for a period time to allow the replicons to replicate in the cells. The replicons can include a reporter gene such as luciferase and in such a case, at the end of the incubation period, the cells are assayed for luciferase activity as markers for replicon levels. Luciferase expression can be quantified using a commercial luciferase assay.
(§2) Luciferase or NS3 protease activity level is then converted into percentages relative to the levels in the controls which can be untreated or treated with an agent having known activity in inhibiting the HCV.
(§3) Another comparison was made, with respect to each replicon's susceptibility against HCV antiviral agents.

The subject of assay [2] is GT 4d-Neo replicons (4d-2Re and 4d-3Re), NS3 activity. Kind of assay: Inhibition of NS3 activity of GT 4d-Neo replicons from pooled colonies. In kind it is cell-based, Hepatitis C virus. Particulars: 4d-3Re and 4d-2Re replicon cells; FIG. 3A-B.
Description: Alternately, efficacy of the HCV inhibitor can be measured by the expression or activity of the proteins encoded by the replicons. One example of such proteins is the NS3 protease, and detection of the protein expression or activity can be carried out with methods known in the art, e.g., Cheng et al., Antimicrob Agents Chemother 55:2197-205 (2011).
as §2
Two candidate HCV inhibitors, Compound A (FIG. 3A) and B (FIG. 3B) were used to test the inhibition of NS3 activities of the replicons isolated from pooled colonies (4d-2Re and 4d-3Re, see FIG. 2). […] Also observed was that NS3 activity was higher in 4d-3Re than 4d-2Re.
4000 cells/well were plated in 96-well white plates. NS3 activity was read 72 hours after plating. Values shown in FIG. 4 are mean of DMSO treated well from 3 plates.
A general note: A replicon is a self-replicating genome or part of one, used to study replication in cells.

For assay [3], the system named is GT4d (34R + 232I-pool) replicon. In words: HCV replicon susceptibility to antiviral agents, GT4d (34R + 232I-pool). Particulars: Hepatitis C virus, GT4d replicon with Q34R + S232I, n = 2. In kind it is cell-based. As to the method:
as §1, §2
(§4) Stable GT4d subgenomic replicons were prepared to include these double mutations (FIG. 12). Ten micrograms of in vitro transcribed 4d Rluc-Neo RNA were transfected into 1C cells. G418 selection started 2 days after transfection and plates were fixed and stained after 2 weeks of G418 selection. […] The luciferase activity of these stable replicon cells of these replicons were further compared to GT4a replicons and GT1b.
as §3

In assay [4] the test system is GT1b replicon. In words: HCV replicon susceptibility to antiviral agents, GT1b. Particulars: Hepatitis C virus, n = 2. The assay is classed as cell-based. As to the method: as §1, §2, §3
Assay [5] concerns GT4d (34R + 232G-pool) replicon. Kind of assay: HCV replicon susceptibility to antiviral agents, GT4d (34R + 232G-pool). In kind it is cell-based. Particulars: Hepatitis C virus, GT4d replicon with Q34R + S232G, n = 2. The protocol: as §1, §2, §4, §3

Turning to `CC(C)OC(=O)[C@H](C)NP(=O)(OC[C@H]1O[C@@H](n2ccc(=O)[nH]c2=O)[C@](C)(F)[C@@H]1O)Oc1ccccc1` (stereo partly drawn) [Compound A, isopropyl (2S)-2-[[[(2R,3R,4R,5R)-5-(2,4-dioxopyrimidin-1-yl)-4-fluoro-3-hydroxy-4-methyl-tetrahydrofuran-2-yl]methoxy-phenoxy-phosphoryl]amino]propanoate], the EC50 in assay [1] was determined as 70 nM; in assay [3], 37 nM; in assay [4] it was 158 nM; in assay [5], 33 nM. For the same compound, the “inhibition of NS3 activity” value in assay [2] is reported as “dose dependent inhibition”.
